Results: patent publication EP3057950B1, “PHENYL LINKED QUINOLINYL MODULATORS OF ROR-GAMMA-T” (Janssen Pharmaceutica NV, priority 2013, dated 2015)

Key:
[1] = target: T1, wild type human RORγt ligand binding domain (RORγt LBD) (Homo sapiens, UniProt P51449); assay: RORγt ThermoFluor® Assay (thermal shift, binding affinity); details: pH 7.0, estimated from concentration response curves
T1 construct: His-tag (N); TurboTEV protease cleavage site (ENLYFQG) (N); made in house; host or cells: E. coli (pHIS1, modified pET expression vector)
T1 sequence (P51449 269-508 limits assumed): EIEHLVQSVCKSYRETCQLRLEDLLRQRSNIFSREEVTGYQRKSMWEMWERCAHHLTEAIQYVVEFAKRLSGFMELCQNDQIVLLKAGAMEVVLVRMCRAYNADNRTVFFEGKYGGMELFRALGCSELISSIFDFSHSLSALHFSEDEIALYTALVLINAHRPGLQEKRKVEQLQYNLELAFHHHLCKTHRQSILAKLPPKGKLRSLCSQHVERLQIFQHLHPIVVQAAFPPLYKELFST
Outline: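 Thermal shift assay on 0.065 mg/mL RORγt LBD with 60 µM 1,8-ANS in 100 mM Hepes pH 7.0, 10 mM NaCl, 2.5 mM GSH, 0.002% Tween-20. Heated at 1 °C/min, fluorescence read at 500 nm.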

[2] = target: T2, wild type human RORγt LBD (Homo sapiens, UniProt P51449); assay: RORγt Reporter Assay (GAL4-RORγt LBD luciferase in HEK293T cells); format: cell-based; details: HEK293T cells
T2 construct: expressed in transfected cells; host or cells: HEK293T
T2 sequence (P51449 269-508 limits assumed): T1 sequence (P51449 269-508 limits assumed)
Outline: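 HEK293T cells transiently co-transfected with GAL4-DBD–human RORγt LBD (or AF2 mutant) and GAL4-responsive firefly luciferase reporter; renilla luciferase normalised transfection and viability. Compounds applied 24 h in 5% lipid-reduced FCS; firefly/renilla ratio plotted against concentration.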

[3] = system: IL-17 production by CD4 T cells; assay: Human Th17 Assay (IL-17 production by CD4 T cells under Th17 differentiation conditions); format: cell-based; details: 3 days, IL-17 in supernatant
Experimental: The human Th17 assay tests the effect of RORγt modulatory compounds on IL-17 production by CD4 T cells under conditions which favor Th17 differentiation. Total CD4^+ T cells were isolated from the peripheral blood mononuclear cells (PBMC) of healthy donors using a CD4^+ T cell isolation kit II, following the manufacturer's instructions (Miltenyi Biotec). […] 50 µL of compound at titrated concentrations in DMSO were added into each well at final DMSO concentration at 0.2%. Cells were incubated for 1 hour, then 50 µL of Th17 cell differentiation medium was added to each well. The final concentrations of antibodies and cytokines (R&D Systems) in differentiation medium were: 3x10^6/mL anti-CD3/CD28 beads (prepared using human T cell activation/expansion kit, Miltenyi Biotec), 10 µg/mL anti-IL4, 10 µg/mL anti-IFNγ, 10 ng/mL […], 10 ng/mL IL23, 50 ng/mL IL6, 3 ng/mL TGFβ and 20 U/mL IL2. Cells were cultured at 37 °C and 5% CO2 for 3 days. Supernatants were collected and the accumulated IL-17 in culture was measured by using MULTI-SPOT® Cytokine Plate following manufacture's instruction (Meso Scale Discovery). The plate was read using Sector Imager 6000, and IL-17 concentration was extrapolated from the standard curve. The IC50s were determined by GraphPad.

Kd [1]: 5.2 nM
RORγt reporter Assay, % inhibition @ 6 µM ([2]; @ 6 µM): 53%
IC50 ([2]; compounds for 24 hours, read-out: RORγt reporter Assay, IC50): 240 nM
IC50 [3]: 79 nM
Structure (SMILES): COc1nc2ccc(C(O)(c3ccc(C(F)(F)F)nc3)c3cncn3C)cc2c(Cl)c1-c1ccc(Cl)s1 (single isomer, unassigned) [Example 14b, [4-Chloro-3-(5-chlorothiophen-2-yl)-2-methoxyquinolin-6-yl](1-methyl-1H-imidazol-5-yl)[6-(trifluoromethyl)pyridin-3-yl]methanol]
